Assay results published in patent US20030092636A1, “Treatment and prevention of paresthesia comprising co-therapy with anticonvulsant derivatives and potassium” (priority 2001, published 2003).
Like-named read-outs stand apart in the source and are kept apart here.

How the values were obtained:
seizures [1] = conditions: several rodent models of epilepsy; cited from earlier work
seizures [2] = conditions: animal model of kindled epilepsy; cited from earlier work
[3] = cited from earlier work
[4] = tested on: simple and complex partial seizures and secondarily generalized seizures; conditions: adjunctive therapy or monotherapy; human epilepsy; cited from earlier work
paresthesia = conditions: intravenous potassium chloride in combination with spirocolactone; patient with hypokalemia and painful leg paresthesia; cited from earlier work
paresthesias [5] = experiment: Single-patient case reports: potassium chloride given to patients with paresthesias while taking topiramate; type: in vivo, human; conditions: potassium chloride 20 mEq/day
Experimental: The patient was a person who had cluster headaches. The patient was taking topiramate at 150 mg/day. They complained of paresthesias. The patient was given potassium chloride at 20 mEq/day.
The patient was a person who had migraine headaches and who was taking topiramate at 150 mg/day. They complained of paresthesias and was given potassium chloride at 20 mEq/day.
The patient was a person who had migraine headaches and was taking topiramate at 200 mg/day. They complained of paresthesias and was given potassium chloride at 20 mEq/day.
The patient was a person who had migraine headaches and was taking topiramate at 125 mg/day. They complained of paresthesias and was given potassium chloride at 20 mEq/day.
The patient was a person who had migraine headaches and was taking topiramate at 50 mg/day. They complained of paresthesias and was given potassium chloride at 20 mEq/day.

paresthesias [6] = experiment: Anecdotal case studies: potassium supplementation in patients with persistent paresthesias; type: in vivo, human
[7] = infusion into an epidural catheter; cited from earlier work

Compound	seizure block (seizures [1])	seizure block (seizures [2])	adverse event or side effect ([3]; patients treated for epilepsy, migraine headaches, bipolar disorder)	severity of the paresthesia ([3]; patients treated with topiramate)	efficacy in treating seizures [4]	outcome of treatment (paresthesia)	paresthesias outcome (paresthesias [5]; Example 3: person, cluster headaches, topiramate 150 mg/day, within 9 days)	paresthesias outcome (paresthesias [5]; Example 4: person, migraine, topiramate 150 mg/day, after about one month)	paresthesias outcome (paresthesias [5]; Example 5: person, migraine, topiramate 200 mg/day, after about two months)	paresthesias outcome (paresthesias [5]; Example 6: person, migraine, topiramate 125 mg/day, after about one month)	paresthesias outcome (paresthesias [5]; Example 7: person, migraine, topiramate 50 mg/day, after one month)	effect on persistent paresthesias (paresthesias [6]; patients complaining of persistent paresthesias, 20-40 meq/day potassium chloride)	effect on paresthesias and severity (paresthesias [6]; potassium chloride and food (orange juice and bananas) supplementation)	effect of inadvertent epidural infusion [7]
CC1(C)O[C@@H]2[C@@H](CO[C@@]3(COS(N)(=O)=O)OC(C)(C)O[C@@H]23)O1 [topiramate, 2,3:4,5-bis-O-(1-methylethylidene)-β-D-fructopyranose sulfamate]	effectively block seizures	effectively block seizures	paresthesia	mild to severe	effective as adjunctive therapy or as monotherapy	–	–	–	–	–	–	–	–	–
[Cl-].[K+] [potassium chloride]	–	–	–	–	–	stabilization of serum potassium, disappearance of paresthesia and normalization of muscle function and ECG	paresthesias had abated	paresthesias had abated	paresthesias had abated	paresthesias had abated	paresthesias had abated	control of the paresthesias	effective in decreasing paresthesias and its severity	paresis (slight paralysis or weakness of a limb) and/or painful paraesthesias in the patient's extremities
